The values below come from article PMC6934184, “Selective DNA-PKcs inhibition extends the therapeutic index of localized radiotherapy and chemotherapy” (The Journal of Clinical Investigation, 2019).

In the test the target is T1, PRKCD (PKC delta) (Homo sapiens, UniProt Q05655).
T1 construct: purchased Thermo Fisher Scientific (Life Technologies) SelectScreen
Kind of test: SelectScreen Z'LYTE. The test is classed as biochemical. An outline of the steps:
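NU5455 was profiled across the SelectScreen Broad panel of kinase activity and binding assays. Z'LYTE reactions such as CSF1R ran at apparent Km ATP, while the Adapta CAMK1 assay used ATP listed as 10. Values are given as percent.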

T1 sequence (Q05655 whole entry): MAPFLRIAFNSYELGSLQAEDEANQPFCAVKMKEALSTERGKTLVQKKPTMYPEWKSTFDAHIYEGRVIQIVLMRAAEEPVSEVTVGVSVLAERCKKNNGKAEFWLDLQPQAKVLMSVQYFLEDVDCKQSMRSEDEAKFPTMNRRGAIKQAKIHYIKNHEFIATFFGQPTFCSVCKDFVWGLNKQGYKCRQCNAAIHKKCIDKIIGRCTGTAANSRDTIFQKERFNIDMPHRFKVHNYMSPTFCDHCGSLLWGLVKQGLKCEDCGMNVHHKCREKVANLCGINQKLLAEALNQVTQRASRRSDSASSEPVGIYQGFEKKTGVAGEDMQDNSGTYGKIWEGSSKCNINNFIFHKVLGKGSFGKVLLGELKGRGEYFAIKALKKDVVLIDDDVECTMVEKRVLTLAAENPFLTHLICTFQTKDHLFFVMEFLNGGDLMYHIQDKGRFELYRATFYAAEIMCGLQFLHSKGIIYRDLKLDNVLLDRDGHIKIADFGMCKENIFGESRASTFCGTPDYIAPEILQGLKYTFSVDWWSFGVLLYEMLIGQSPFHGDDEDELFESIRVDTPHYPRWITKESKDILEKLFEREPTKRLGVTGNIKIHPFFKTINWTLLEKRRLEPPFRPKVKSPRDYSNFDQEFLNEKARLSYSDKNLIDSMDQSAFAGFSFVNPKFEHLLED

Broadly, the inhibition is the drop in the measured response relative to a control, in per cent. `CN(C(=O)CN1CCOCC1)c1ccc2sc3c(-c4cccc5c(=O)cc(N6CC7CCC(C6)O7)oc45)cccc3c2c1` [NU5455] displayed an inhibition at 1 µM of 6.2%.
